Where a name gives a salt, the structure may show the parent alone. Read-outs that look alike come from different tables or passages of the source.
Tests used:
[1] = system: P. falciparum 3D7 gametocytes; assay: alamarBlue gametocyte viability assay, strain 3D7; type: cell-based, Plasmodium falciparum
[2] = system: P. falciparum HB3 gametocytes; assay: alamarBlue gametocyte viability assay, strain HB3; type: cell-based, Plasmodium falciparum
[3] = system: P. falciparum Dd2 gametocytes; assay: alamarBlue gametocyte viability assay, strain Dd2; type: cell-based, Plasmodium falciparum
Experimental: Briefly, gametocyte cultures were set up at 0.1% parasitemia and on days 9–10 treated with 50 mM N-acetylglucosamine (NAG) to block further asexual growth. Stage III–V gametocytes were isolated by Percoll density gradient centrifugation on day 12 and returned to culture for 24 hrs before being used in the assay[9].
Briefly, 2.5 μl/well incomplete medium was dispensed into each well of 1,536-well plates using the Multidrop Combi followed by 23 nl compound transferring using the NX-TR Pintool (WAKO Scientific Solutions, San Diego, CA). Then, 2.5 μl/well of gametocytes was dispensed with a seeding density of 20,000 cells/well using the Multidrop Combi. The assay plates were incubated for 72 hrs at 37°C with 5% CO2.

HepG2 cells = assay: cells; conditions: Homo sapiens; for Emax: HepG2, read-out: % Max response; for IC50: HepG2, read-out: IC50 in HepG2 cells
Text: Growth medium was made with Dulbecco's Modified Eagle Medium with 10% fetal bovine serum (FBS).

[4] = Plasmodium falciparum, HB3, strain profiling, 11 concentrations, 1:3 dilution, three times, read-out: HB3-gametocytes IC50
[5] = Plasmodium falciparum, DD2, strain profiling, 11 concentrations, 1:3 dilution, three times, read-out: Dd2-gametocytes IC50
[6] = Plasmodium falciparum, 3D7, P. falciparum 3D7 gametocytes, mean of at least 3 independent experiments, read-out: Gametocyte IC50
[7] = Plasmodium falciparum, DD2, read-out: Dd2-gametocytes IC50
[8] = Plasmodium falciparum, 3D7, strain profiling, 11 concentrations, 1:3 dilution, three times, read-out: 3D7-gametocytes IC50
[9] = Plasmodium falciparum, HB3, read-out: HB3-gametocytes IC50

| Compound | IC50 [2, 4] | IC50 [3, 5] | IC50 [1, 6] | IC50 (HepG2 cells) | Emax (HepG2 cells) | IC50 [1, 8] | other results |
| --- | --- | --- | --- | --- | --- | --- | --- |
| [O-][n+]1ccccc1SSc1cccc[n+]1[O-] [Dipyrithione] | 743 nM | – | 263 nM | 10800 nM | -93% | – | IC50 [3, 7]: 590 nM |
| OC(c1cc(C(F)(F)F)nc2c(C(F)(F)F)cccc12)C1CCCCN1 (stereo not drawn) [Mefloquine] | – | – | 833 nM | 29600 nM | -97% | – | – |
| CO[C@H]1/C=C\C=C(/C)C(=O)NC2=CC(=O)C(NCCN(C)C)=C(C[C@@H](C)C[C@H](OC)[C@H](O)[C@@H](C)/C=C(\C)[C@@H]1OC(N)=O)C2=O [Alvespimycin] | 235 nM | – | 74 nM | 118 nM | -94% | – | IC50 [3, 7]: 94 nM |
| CO[C@@H]1[C@@H](OC)[C@H](C)[C@@](O)(CC(=O)O)O[C@H]1[C@H](C)[C@H]1O[C@@]2(CC[C@@](C)([C@H]3CC[C@@](C)([C@@H]4O[C@@H]([C@H]5O[C@](C)(O)[C@H](C)C[C@@H]5C)C[C@@H]4O[C@@H]4C[C@H](OC)[C@@H](OC)[C@H](C)O4)O3)O2)C[C@H](O)[C@H]1C [Maduramicin ammonium] | 12 nM | 37 nM | – | – | – | 24 nM | – |
| CCN(CC)C(=S)SSC(=S)N(CC)CC [Disulfiram] | 108 nM | 96 nM | – | – | – | 96 nM | – |
| Cl.Cl.Cl.Cl.Cl.Cl.N.N.N.N.N.N.N.N.N.N.N.N.N.N.[O-2].[O-2].[Ru+3].[Ru+3].[Ru+4] [Ruthenium red] | – | – | – | – | – | – | IC50 ([1]; strain profiling, 11 concentrations, 1:3 dilution, three times, read-out: 3D7-gametocytes IC50): 935 nM; IC50 ([2]; strain profiling, 11 concentrations, 1:3 dilution, three times, read-out: HB3-gametocytes IC50): 264 nM; IC50 ([3]; strain profiling, 11 concentrations, 1:3 dilution, three times, read-out: Dd2-gametocytes IC50): 526 nM |
| CN(C)C/C=C/C(=O)Nc1cc2c(Nc3ccc(F)c(Cl)c3)ncnc2cc1O[C@H]1CCOC1 [Afatinib] | 4180 nM | 2960 nM | 935 nM | 18700 nM | -100% | – | – |
| CC[C@@H](C(=O)O)[C@@H]1O[C@@H]([C@@H](C)[C@H](O)[C@H](C)C(=O)[C@H](CC)[C@H]2O[C@]3(C=C[C@@H](O)[C@]4(CC[C@@](C)([C@H]5CC[C@](O)(CC)[C@H](C)O5)O4)O3)[C@H](C)C[C@@H]2C)[C@@H](C)C[C@@H]1C [Narasin] | 136 nM | – | 50 nM | 27000 nM | -98% | – | IC50 [3, 7]: 76 nM |
| CO[C@@H]1[C@@H](OC)[C@H](C)[C@@](O)(CC(=O)O)O[C@H]1[C@H](C)[C@H]1O[C@@]2(CC[C@@](C)([C@H]3CC[C@@](C)([C@@H]4O[C@@H]([C@H]5O[C@](C)(O)[C@H](C)C[C@@H]5C)C[C@@H]4O[C@@H]4C[C@H](OC)[C@@H](OC)[C@H](C)O4)O3)O2)C[C@H](O)[C@H]1C [Maduramicin] | – | – | 47 nM | 37200 nM | -42% | – | – |
| C/C=C1\NC(=O)[C@H]2CSSCC/C=C/[C@H](CC(=O)N[C@H](C(C)C)C(=O)N2)OC(=O)[C@H](C(C)C)NC1=O [Romidepsin] | – | – | – | 74 nM | -98% | 264 nM | IC50 ([1]; Plasmodium falciparum, P. falciparum 3D7 gametocytes, mean of at least 3 independent experiments, read-out: Gametocyte IC50): 637 nM; IC50 [2, 9]: 148 nM; IC50 [3, 7]: 187 nM |
| CCN(CC)Cc1nccn1-c1ccc([N+](=O)[O-])cc1C(=O)c1ccccc1Cl [Nizofenone] | – | – | – | – | – | 23500 nM | IC50 [2, 9]: 14800 nM; IC50 [3, 7]: 16600 nM |
| COC(=O)C[C@](O)(CCCC(C)(C)O)C(=O)O[C@@H]1C(OC)=C[C@]23CCCN2CCc2cc4c(cc2[C@H]13)OCO4 [Omacetaxine mepesuccinate] | 17 nM | 37 nM | – | – | – | 59 nM | – |
| c1ccc2c(c1)[I+]c1ccccc1-2 [Diphenyleneiodonium] | 296 nM | – | – | – | – | 132 nM | IC50 [3, 7]: 209 nM |
| COc1cc(NC(C)CCCN)c2ncccc2c1 (stereo not drawn) [Primaquine] | – | – | – | 17800 nM | – | – | IC50 ([2]; read-out: HB3-gametocytes IC50, strain profiling, 11 concentrations, 1:3 dilution, three times, listed as PQ): 680 nM; IC50 ([3]; Plasmodium falciparum, DD2, read-out: Dd2-gametocytes IC50, strain profiling, 11 concentrations, 1:3 dilution, three times): 1080 nM; IC50 ([3]; read-out: Dd2-gametocytes IC50, strain profiling, 11 concentrations, 1:3 dilution, three times, listed as PQ): 1080 nM |

Now from value to compound, other results behind:

| IC50 [2, 4] | IC50 [3, 5] | IC50 [1, 6] | IC50 (HepG2 cells) | Compound | Emax (HepG2 cells) | IC50 [1, 8] | other results |
| --- | --- | --- | --- | --- | --- | --- | --- |
| 1180 nM | 1320 nM | – | – | c1cnc2c(c1)ccc1cccnc12 [1,10-Phenanthroline] | – | – | IC50 ([1]; Plasmodium falciparum, 3D7, read-out: 3D7-gametocytes IC50, strain profiling, 11 concentrations, 1:3 dilution, three times): 743 nM |
| 42 nM | 47 nM | 47 nM | 148 nM | CCNC(=O)c1noc(-c2cc(C(C)C)c(O)cc2O)c1-c1ccc(CN2CCOCC2)cc1 [NVP-AUY922] | -88% | – | – |
| 148 nM | 118 nM | 935 nM | 372 nM | Cc1[nH]c2ccccc2c1CCNCc1ccc(/C=C/C(=O)NO)cc1 [Panobinostat] | -74% | – | – |
| 152 nM | 429 nM | 833 nM | 6790 nM | C#Cc1cccc(Nc2ncnc3cc(OC)c(OCCCCCCC(=O)NO)cc23)c1 [CUDC-101] | -76% | – | fold more potent against HB3 compared to 3D7 gametocytes [2]: 5.5 fold |
| 59 nM | 53 nM | – | – | OC(c1cc(C(F)(F)F)nc2c(C(F)(F)F)cccc12)C1CCCCN1 (stereo not drawn) [Mefloquine hydrochloride] | – | 74 nM | – |
| 304 nM | 526 nM | 372 nM | 4690 nM | COCCn1c2c([n+](Cc3cnccn3)c1C)C(=O)c1ccccc1C2=O [YM155] | -92% | – | – |
| 3 nM | 2 nM | 12 nM | 1180 nM | CC(C)C[C@H](NC(=O)[C@H](CCc1ccccc1)NC(=O)CN1CCOCC1)C(=O)N[C@@H](Cc1ccccc1)C(=O)N[C@@H](CC(C)C)C(=O)[C@@]1(C)CO1 [Carfilzomib] | -79% | 4 nM | – |

— paper PMC3894558, “Chemical signatures and new drug targets for gametocytocidal drug development” (Scientific Reports, 2014)
